Assay results published in US4397839A, “Surface active material and process for preparing same” (Tokyo Tanabe Company, Limited, priority 1981, dated 1983).
Where “and” joins values, the source holds several entries; their conditions need not be identical. Identical values can stand only once. Counter-ions that a name gives are not always drawn.

System: mature rabbits suffering from septicemia induced by Escherichia coli, complicated by RDS
Type: in vivo, rabbit
Procedure: Specifically, 32 rabbits in the abovedescribed morbid state were divided into 4 groups including one control (or no-treatment) group. […] Then, all groups were comparatively examined for the degree of improvement in respiratory function. The morbid rabbits were prepared and the degree of lung injury was evaluated according to the methods of Cuevas et al. (Archives of Surgery, 104, 319, 1972), and the circulating titer of endotoxin in blood was determined according to the method of Reinhold et al. (Proceedings of the Society for Experimental Biology and Medicine, 137, 334, 1971). The treatment with the material of the invention and/or kanamycin sulfate was carried out within 24 hours before and after the onset of RDS. The material of the invention was instilled 1-6 times into the airway in a dose of 50-100 mg/kg for each treatment, while 80-150 mg/kg of kanamycin sulfate was intramuscularly injected in 2-8 divided doses. Two days after treatment, the subjects were examined for survival and the degree of lung injury. […] The degree of lung injury becomes severer as the value increases.

For NC[C@H]1O[C@H](O[C@H]2[C@H](O)[C@@H](O[C@H]3O[C@H](CO)[C@@H](O)[C@H](N)[C@H]3O)[C@H](N)C[C@@H]2N)[C@H](O)[C@@H](O)[C@@H]1O [kanamycin sulfate], the “Circulating titer (endotoxin in blood)” value (individual animals (one line per subject)) was 0.10 µg/mL and 0.01 µg/mL and 0.00 µg/mL and 0.40 µg/mL and 0.02 µg/mL, the Survival (individual animals, two days after treatment) was “No and Yes” and the “Degree of lung injury” value (individual animals, two days after treatment, severer as the value increases) was 3 and 0 and 1 and 2.
